Results as given in patent US9006445B2, “Polymorphic form of pridopidine hydrochloride” (Ivax International GmbH, priority 2011, dated 2015).
Like-named read-outs stand apart in the source and are kept apart here.

Key:
[1] = 25° C.
Description: Dynamic vapour sorption (DVS) measurements were conducted using a Q5000 SA from TA instruments.
Experiments were conducted in two sorption/desorption cycles between 0% RH and 95% RH. Prior to the first sorption cycle the sample was equilibrated at 20% RH and the initial weight recorded. Samples were analyzed in an aluminium pan. Humidity was brought down to 0% RH and the sample dried until the weight had stabilized within a given limit. The temperature was held constant at 25° C. Maximum step time was 720 min. Gas flow was 200 cm3/min.

[2] = for Particle size D10 / Particle size D50 / Particle size D90: image analysis; for Aspect ratio AR10 / Aspect ratio AR50 / Aspect ratio AR90: longest divided by shortest particle dimension
Description: Microscopic analysis was carried out using a Zeiss Axiolab microscope (Carl Zeiss, Göttingen, Germany). Photomicrographs were captured using a DeltaPix digital camera and Deltapix software version 1.6 (Maaloev, Denmark). […] The particle size was determinated using Motic Image Plus 2.0 software (Motic Group Inc, China), calibrated to pictures of reference scales taken with the used objectives.

[3] = triplicate; for bulk density: 50.0 g sample; for tapped density: 2500 taps at 100 taps/min
Description: Density determinations were performed as described in Ph. Eur. 2.9.34. The method was modified as the sample amount placed in the 250 ml volumetric glass cylinder was 50.0 g and 2500 taps were run at 100 taps/min. The measurements were done in triplicate.

[4] = conclusion from calculated Tt and seeding experiment
Description: (§1) In order to confirm this finding experimentally, a seeding experiment was carried out, where mixtures of the two forms were slurried in an organic solvent for 4 hours at various temperatures.

[5] = mixtures of the two forms slurried in organic solvent for 4 hours, XRPD
Description: as §1

SMILES | hygroscopicity (DVS) ([1]; below 80% RH) | hygroscopicity (DVS) ([1]; in excess of 80% RH) | Particle size D10 [2] | Particle size D50 [2] | Particle size D90 [2] | Aspect ratio AR10 [2] | Aspect ratio AR50 [2] | Aspect ratio AR90 [2] | bulk density [3] | tapped density [3] | temperature at which the form is the thermodynamically most stable form [4] | temperature at which the polymorphic outcome of slurrying was this form [5]
CCCN1CCC(c2cccc(S(C)(=O)=O)c2)CC1.Cl [Form II, 4-(3-methanesulfonyl-phenyl)-1-propyl-piperidine hydrochloride salt] | non-hygroscopic | deliquescent | 49 μm | 170 μm | 363 μm | 1.1 | 1.6 | 2.9 | 0.382 g/mL | 0.486 g/mL | above 127 °C | above 130 °C
CCCN1CCC(c2cccc(S(C)(=O)=O)c2)CC1 [Form I, 4-(3-methanesulfonyl-phenyl)-1-propyl-piperidine] | non-hygroscopic | deliquescent | 9 μm | 21 μm | 42 μm | 1.6 | 3.1 | 5.8 | 0.212 g/mL | 0.264 g/mL | above 127 °C | below 125 °C
